Laboratory results: patent US12501899B2, “Mite infestation treatment” (priority 2019, dated 2025)
Structures can show the parent of a compound that is named as a salt. Where two headings read alike, the source gives them in different places.

Legend:
Varroa destructor = conditions: 0.1 μg/μL in ethanol
Ixodes ricinus = test: Oral acaricidal test on ticks in membrane feeding wells with treated blood; type: in vivo; conditions: for mortality at 1 ppm / mortality at 10 ppm / mortality at 100 ppm: Ixodes ricinus, po
Method in brief: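 Ixodes ricinus nymphs and adults (batches of 12) fed through silicone membranes on ATP-enriched blood at 37 °C; after attachment (24 h), compounds at 1, 10, 100 ppm in 0.1% DMSO added for 24 h, blood changed at 12 h. Mortality, attachment and convulsions scored at 1–96 h.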

[1] = adult ticks, 1 h, read-out: average percentage of adult tick mortality (moribund or dead adult ticks)
[2] = adult ticks, 3 h, read-out: average percentage of adult tick mortality (moribund or dead adult ticks)
[3] = adult ticks, 6 h, read-out: average percentage of adult tick mortality (moribund or dead adult ticks)
[4] = adult ticks, 12 h, read-out: average percentage of adult tick mortality (moribund or dead adult ticks)
[5] = adult ticks, 24 h, read-out: average percentage of adult tick mortality (moribund or dead adult ticks)
[6] = adult ticks, 48 h, read-out: average percentage of adult tick mortality (moribund or dead adult ticks)
[7] = adult ticks, 72 h, read-out: average percentage of adult tick mortality (moribund or dead adult ticks)
[8] = adult ticks, 96 h, read-out: average percentage of adult tick mortality (moribund or dead adult ticks)
[9] = nymphs, 1 h, read-out: average percentage of mortality of tick nymphs (moribund or dead nymphs)
[10] = nymphs, 3 h, read-out: average percentage of mortality of tick nymphs (moribund or dead nymphs)
[11] = nymphs, 6 h, read-out: average percentage of mortality of tick nymphs (moribund or dead nymphs)
[12] = nymphs, 12 h, read-out: average percentage of mortality of tick nymphs (moribund or dead nymphs)
[13] = nymphs, 24 h, read-out: average percentage of mortality of tick nymphs (moribund or dead nymphs)
[14] = nymphs, 48 h, read-out: average percentage of mortality of tick nymphs (moribund or dead nymphs)
[15] = nymphs, 72 h, read-out: average percentage of mortality of tick nymphs (moribund or dead nymphs)
[16] = nymphs, 96 h, read-out: average percentage of mortality of tick nymphs (moribund or dead nymphs)

Cc1cccc(C(C)c2cnc[nH]2)c1C (racemic) [Medetomidine hydrochloride]
Varroacid effect (in words) (Varroa destructor): very effective
effect in terms of tick detachment (in words) (Ixodes ricinus; 1, 10, 100 ppm, nymphs and adults): very limited effect
mortality at 1 ppm (Ixodes ricinus; [1]): 0%
mortality at 1 ppm (Ixodes ricinus; [2]): 0%
mortality at 1 ppm (Ixodes ricinus; [3]): 2.3%
mortality at 1 ppm (Ixodes ricinus; [4]): 7.3%
mortality at 1 ppm (Ixodes ricinus; [5]): 47.6%
mortality at 1 ppm (Ixodes ricinus; [6]): 97.7%
mortality at 1 ppm (Ixodes ricinus; [7]): 100%
mortality at 1 ppm (Ixodes ricinus; [8]): 100%
mortality at 10 ppm (Ixodes ricinus; [1]): 0%
mortality at 10 ppm (Ixodes ricinus; [2]): 0%
mortality at 10 ppm (Ixodes ricinus; [3]): 9.6%
mortality at 10 ppm (Ixodes ricinus; [4]): 9.6%
mortality at 10 ppm (Ixodes ricinus; [5]): 53.9%
mortality at 10 ppm (Ixodes ricinus; [6]): 91.2%
mortality at 10 ppm (Ixodes ricinus; [7]): 100%
mortality at 10 ppm (Ixodes ricinus; [8]): 100%
mortality at 100 ppm (Ixodes ricinus; [1]): 0%
mortality at 100 ppm (Ixodes ricinus; [2]): 0%
mortality at 100 ppm (Ixodes ricinus; [3]): 12.5%
mortality at 100 ppm (Ixodes ricinus; [4]): 18.1%
mortality at 100 ppm (Ixodes ricinus; [5]): 53.1%
mortality at 100 ppm (Ixodes ricinus; [6]): 84.7%
mortality at 100 ppm (Ixodes ricinus; [7]): 93.8%
mortality at 100 ppm (Ixodes ricinus; [8]): 100%
mortality at 1 ppm (Ixodes ricinus; [9]): 0%
mortality at 1 ppm (Ixodes ricinus; [10]): 0%
mortality at 1 ppm (Ixodes ricinus; [11]): 19.5%
mortality at 1 ppm (Ixodes ricinus; [12]): 38.9%
mortality at 1 ppm (Ixodes ricinus; [13]): 61.8%
mortality at 1 ppm (Ixodes ricinus; [14]): 93.9%
mortality at 1 ppm (Ixodes ricinus; [15]): 100%
mortality at 1 ppm (Ixodes ricinus; [16]): 100%
mortality at 10 ppm (Ixodes ricinus; [9]): 0%
mortality at 10 ppm (Ixodes ricinus; [10]): 10.4%
mortality at 10 ppm (Ixodes ricinus; [11]): 38.4%
mortality at 10 ppm (Ixodes ricinus; [12]): 58.5%
mortality at 10 ppm (Ixodes ricinus; [13]): 78.7%
mortality at 10 ppm (Ixodes ricinus; [14]): 85%
mortality at 10 ppm (Ixodes ricinus; [15]): 95.8%
mortality at 10 ppm (Ixodes ricinus; [16]): 100%
mortality at 100 ppm (Ixodes ricinus; [9]): 0%
mortality at 100 ppm (Ixodes ricinus; [10]): 9.1%
mortality at 100 ppm (Ixodes ricinus; [11]): 38.5%
mortality at 100 ppm (Ixodes ricinus; [12]): 69.2%
mortality at 100 ppm (Ixodes ricinus; [13]): 94.4%
mortality at 100 ppm (Ixodes ricinus; [14]): 100%
mortality at 100 ppm (Ixodes ricinus; [15]): 100%
mortality at 100 ppm (Ixodes ricinus; [16]): 100%
ticks affected (convulsion, morbidity or death of ticks) (Ixodes ricinus; from 1 hour of exposure, regardless of the concentration tested (1, 10, 100 ppm)): 100%
